Target: T1, Human GRIN1 and human GRIN2B expressing HEK293 cells (Homo sapiens, UniProt Q13224)
T1 construct: host or cells: HEK293
Assay: NR2B Ca2+ flux assay
Format: cell-based
Settings: 10 μM test compound, glutamic acid/glycine stimulated Fluo-4 fluorescence, FLIPR, read-out: inhibitory rate (@10 μM)
Procedure: Experimental Example 1 NR2B Ca^2+ Flux Assay
Human GRIN1 and human GRIN2B expressing HEK293 cells were purchased from ChanTest. The cells were cultured in a DMEM/F-12 (COSMO BIO, 10-092-CM) medium added with 10% FBS (fetal bovine serum, AusGene), 100 units/mL penicillin, 100 μg/mL streptomycin, 500 μg/mL neomycin, 100 μg/mL Zeocin, 5 μg/mL Blasticidin at 37° C., 5% CO2. The cells were detached from flask with trypsin the day before the assay, suspended in a seeding medium (DMEM (Invitrogen, 31053) added with 10% FBS, 100 units/mL penicillin, 100 μg/mL streptomycin) at 8×10^5 cells/mL, seeded by 25 μL per well in a 384-well plate (Falcon, 356663) at 20000 cells/well, and cultured overnight in an incubator. On the day of the assay, tetracycline (Wako Pure Chemical Industries, Ltd., 209-16561) was diluted with the seeding medium at 2 μg/mL, added at […] to the plate seeded with the cells, and cultured for 2 hr in an incubator. Thereafter, the medium was removed, and the cells were washed with 50 μL/well assay buffer (137 mM NaCl, 4 mM KCl, 1.8 mM CaCl2, 10 mM HEPES (pH 7.2), 10 mM Glucose, 0.1% BSA). Then, a loading buffer (assay buffer added with 2.5 uM Fluo-4AM, 2 mM Amaranth, 1 mM Tartrazine) was added at 25 μL/well, and loading was performed in the incubator for 30 min, and at room temperature for 15 min. A test compound (25 μL) was added, and the cells were stood for 15 min at room temperature. Using FLIPR (Molecular Devices), 25 μL of an assay buffer containing […], 30 μM glycine was added, and the fluorescence signal was measured every 3 seconds for 5 min. The inhibitory activity was calculated as a relative activity value that inhibits 100% of the cumulative value of the fluorescence value of a well added with a buffer free of glutamic acid, glycine, relative to the cumulative value of the fluorescence value of each well.

T1 sequence (Q13224 27-1484, other chains not shown): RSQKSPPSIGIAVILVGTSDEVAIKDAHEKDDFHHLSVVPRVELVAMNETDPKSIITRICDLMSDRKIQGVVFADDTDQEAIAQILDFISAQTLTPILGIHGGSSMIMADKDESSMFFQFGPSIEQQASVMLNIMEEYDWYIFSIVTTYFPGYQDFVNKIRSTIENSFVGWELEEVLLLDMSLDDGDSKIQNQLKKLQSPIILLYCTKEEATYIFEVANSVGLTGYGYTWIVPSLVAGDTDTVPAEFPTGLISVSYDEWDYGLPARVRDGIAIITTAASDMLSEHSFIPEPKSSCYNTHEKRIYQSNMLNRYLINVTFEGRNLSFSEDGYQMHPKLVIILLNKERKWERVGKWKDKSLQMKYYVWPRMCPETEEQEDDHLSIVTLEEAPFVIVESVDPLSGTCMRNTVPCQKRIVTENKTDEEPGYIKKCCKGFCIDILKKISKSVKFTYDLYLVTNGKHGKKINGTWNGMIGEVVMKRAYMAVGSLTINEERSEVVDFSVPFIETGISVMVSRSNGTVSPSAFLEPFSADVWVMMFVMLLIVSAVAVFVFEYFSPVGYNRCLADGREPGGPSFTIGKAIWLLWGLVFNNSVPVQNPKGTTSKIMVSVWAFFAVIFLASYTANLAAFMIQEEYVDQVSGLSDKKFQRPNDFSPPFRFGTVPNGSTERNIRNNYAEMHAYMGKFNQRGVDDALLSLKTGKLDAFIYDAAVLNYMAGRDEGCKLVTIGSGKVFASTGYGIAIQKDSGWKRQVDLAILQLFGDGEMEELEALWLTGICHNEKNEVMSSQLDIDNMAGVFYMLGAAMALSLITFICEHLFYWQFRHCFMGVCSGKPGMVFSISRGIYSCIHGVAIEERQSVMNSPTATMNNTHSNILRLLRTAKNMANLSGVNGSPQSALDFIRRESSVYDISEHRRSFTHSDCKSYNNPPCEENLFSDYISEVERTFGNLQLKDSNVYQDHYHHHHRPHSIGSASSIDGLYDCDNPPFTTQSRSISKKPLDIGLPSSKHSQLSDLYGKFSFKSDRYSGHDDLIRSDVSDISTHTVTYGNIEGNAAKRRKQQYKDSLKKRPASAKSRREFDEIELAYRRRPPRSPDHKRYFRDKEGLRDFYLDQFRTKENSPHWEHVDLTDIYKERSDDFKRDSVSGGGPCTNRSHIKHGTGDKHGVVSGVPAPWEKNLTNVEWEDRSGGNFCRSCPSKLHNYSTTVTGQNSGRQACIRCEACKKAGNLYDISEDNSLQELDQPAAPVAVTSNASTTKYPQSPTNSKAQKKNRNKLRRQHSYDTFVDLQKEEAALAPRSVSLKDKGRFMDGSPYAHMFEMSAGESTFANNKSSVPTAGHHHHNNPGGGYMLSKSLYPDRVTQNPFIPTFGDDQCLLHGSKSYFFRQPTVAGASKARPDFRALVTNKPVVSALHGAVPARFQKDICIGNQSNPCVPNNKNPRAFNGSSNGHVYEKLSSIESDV

SMILES	inhibition at 10 µM
O=C(Cc1cccc2nccn12)Nc1ccc(C(F)(F)F)cc1 [Example 1, 2-(imidazo[1,2-a]pyridin-5-yl)-N-(4-(trifluoromethyl)phenyl)acetamide]	91%
COc1ccc(NC(=O)Cc2cccc3nccn23)cc1 [Example 2, 2-(imidazo[1,2-a]pyridin-5-yl)-N-(4-methoxyphenyl)acetamide]	91%
CCc1ccc(NC(=O)Cc2cccc3nccn23)cc1 [Example 3, N-(4-ethylphenyl)-2-(imidazo[1,2-a]pyridin-5-yl)acetamide]	94%
O=C(Cc1cccc2nccn12)Nc1ccc(C2CC2)cc1 [Example 4, N-(4-cyclopropylphenyl)-2-(imidazo[1,2-a]pyridin-5-yl)acetamide]	94%
O=C(Cc1cccc2nccn12)Nc1ccc(OC(F)(F)F)cc1 [Example 5, 2-(imidazo[1,2-a]pyridin-5-yl)-N-(4-(trifluoromethoxy)phenyl)acetamide]	93%
O=C(Cc1cccc2nccn12)Nc1ccc(OC(F)F)cc1 [Example 6, N-(4-(difluoromethoxy)phenyl)-2-(imidazo[1,2-a]pyridin-5-yl)acetamide]	93%
O=C(Cc1cccc2nccn12)Nc1ccc(Cl)c(F)c1 [Example 7, N-(4-chloro-3-fluorophenyl)-2-(imidazo[1,2-a]pyridin-5-yl)acetamide]	90%
COc1ccc(NC(=O)Cc2cccc3nccn23)cc1F [Example 8, N-(3-fluoro-4-methoxyphenyl)-2-(imidazo[1,2-a]pyridin-5-yl)acetamide]	92%
O=C(Cc1cccc2nccn12)Nc1cc(F)c(F)c(F)c1 [Example 9, 2-(imidazo[1,2-a]pyridin-5-yl)-N-(3,4,5-trifluorophenyl)acetamide]	87%
CCCc1ccc(NC(=O)Cc2cccc3nccn23)cc1 [Example 10, 2-(imidazo[1,2-a]pyridin-5-yl)-N-(4-propylphenyl)acetamide]	91%
CCc1ccc(NC(=O)Cc2cccc3nccn23)cc1F [Example 11, N-(4-ethyl-3-fluorophenyl)-2-(imidazo[1,2-a]pyridin-5-yl)acetamide]	94%
O=C(Cc1cccc2nccn12)Nc1ccc(C2CC2)c(F)c1 [Example 12, N-(4-cyclopropyl-3-fluorophenyl)-2-(imidazo[1,2-a]pyridin-5-yl)acetamide]	93%
O=C(Cc1cccc2nccn12)Nc1ccc(CC(F)F)cc1 [Example 13, N-(4-(2,2-difluoroethyl)phenyl)-2-(imidazo[1,2-a]pyridin-5-yl)acetamide]	88%
O=C(Cc1cccc2nccn12)Nc1ccc(OC(F)(F)F)c(F)c1 [Example 14, N-(3-fluoro-4-(trifluoromethoxy)phenyl)-2-(imidazo[1,2-a]pyridin-5-yl) acetamide]	92%
Cc1ccc(NC(=O)Cc2cccc3nccn23)cc1F [Example 15, N-(3-fluoro-4-methylphenyl)-2-(imidazo[1,2-a]pyridin-5-yl)acetamide]	91%
O=C(Cc1cccc2nccn12)Nc1ccc(I)cc1 [Example 16, 2-(imidazo[1,2-a]pyridin-5-yl)-N-(4-iodophenyl)acetamide]	91%
O=C(Cc1cccc2nccn12)Nc1ccc(OC(F)F)c(F)c1 [Example 17, N-(4-(difluoromethoxy)-3-fluorophenyl)-2-(imidazo[1,2-a]pyridin-5-yl)acetamide]	93%
CCOc1ccc(NC(=O)Cc2cccc3nccn23)cc1F [Example 18, N-(4-ethoxy-3-fluorophenyl)-2-(imidazo[1,2-a]pyridin-5-yl)acetamide]	91%
COc1c(F)cc(NC(=O)Cc2cccc3nccn23)cc1F [Example 19, N-(3,5-difluoro-4-methoxyphenyl)-2-(imidazo[1,2-a]pyridin-5-yl)acetamide]	91%
Cc1cnc2cccc(CC(=O)Nc3ccc(C(F)(F)F)cc3)n12 [Example 20, 2-(3-methylimidazo[1,2-a]pyridin-5-yl)-N-(4-(trifluoromethyl)phenyl)acetamide]	74%
O=C(Cc1cccc2nccn12)Nc1ccc(F)c(C(F)F)c1 [Example 21, N-(3-(difluoromethyl)-4-fluorophenyl)-2-(imidazo[1,2-a]pyridin-5-yl)acetamide]	56%

SMILES	inhibition at 10 µM
Cc1cn2c(CC(=O)Nc3ccc(C(F)(F)F)cc3)cccc2n1 [Example 23, 2-(2-methylimidazo[1,2-a]pyridin-5-yl)-N-(4-(trifluoromethyl)phenyl)-acetamide]	81%
COc1ccc(NC(=O)Cc2cccc3nccn23)cn1 [Example 24, 2-(imidazo[1,2-a]pyridin-5-yl)-N-(6-methoxypyridin-3-yl)acetamide]	62%
O=C(Cc1cccc2nccn12)Nc1ccccc1 [Example 26, 2-(imidazo[1,2-a]pyridin-5-yl)-N-phenylacetamide]	53%
O=C(Cc1cccc2nccn12)Nc1ccc(F)cc1F [Example 27, N-(2,4-difluorophenyl)-2-(imidazo[1,2-a]pyridin-5-yl)acetamide]	66%
O=C(Cc1cccc2nccn12)Nc1ccc(F)c(F)c1 [Example 29, N-(3,4-difluorophenyl)-2-(imidazo[1,2-a]pyridin-5-yl)acetamide]	88%
Cc1cccc(NC(=O)Cc2cccc3nccn23)c1 [Example 30, 2-(imidazo[1,2-a]pyridin-5-yl)-N-(3-methylphenyl)acetamide]	50%
N#Cc1ccc(NC(=O)Cc2cccc3nccn23)cc1 [Example 31, N-(4-cyanophenyl)-2-(imidazo[1,2-a]pyridin-5-yl)acetamide]	78%
O=C(Cc1cccc2nccn12)Nc1ccc(F)cc1 [Example 32, N-(4-fluorophenyl)-2-(imidazo[1,2-a]pyridin-5-yl)acetamide]	83%
O=C(Cc1cccc2nccn12)Nc1ccc(Cl)cc1 [Example 33, N-(4-chlorophenyl)-2-(imidazo[1,2-a]pyridin-5-yl)acetamide]	92%
O=C(Cc1cccc2nccn12)Nc1ccc(Oc2ccccc2)cc1 [Example 34, 2-(imidazo[1,2-a]pyridin-5-yl)-N-(4-phenoxyphenyl)acetamide]	71%
Cc1ccc(NC(=O)Cc2cccc3nccn23)cc1 [Example 35, 2-(imidazo[1,2-a]pyridin-5-yl)-N-(4-methylphenyl)acetamide]	90%
O=C(Cc1cccc2nccn12)Nc1ccc(C(F)(F)F)cn1 [Example 36, 2-(imidazo[1,2-a]pyridin-5-yl)-N-(5-(trifluoromethyl)pyridin-2-yl)acetamide]	80%
O=C(Cc1cccc2nccn12)Nc1ccc(C(F)(F)F)cc1Cl [Example 37, N-(2-chloro-4-(trifluoromethyl)phenyl)-2-(imidazo[1,2-a]pyridin-5-yl)acetamide]	81%
O=C(Cc1cccc2nccn12)Nc1ccc(OCC(F)(F)F)cc1 [Example 38, 2-(imidazo[1,2-a]pyridin-5-yl)-N-(4-(2,2,2-trifluoroethoxy)phenyl)-acetamide]	82%
O=C(Cc1cccc2nccn12)Nc1ccc(C(F)(F)F)c(Cl)c1 [Example 39, N-(3-chloro-4-(trifluoromethyl)phenyl)-2-(imidazo[1,2-a]pyridin-5-yl)acetamide]	90%
O=C(Cc1cccc2nccn12)Nc1ccc(C(F)(F)F)cc1F [Example 43, N-(2-fluoro-4-(trifluoromethyl)phenyl)-2-(imidazo[1,2-a]pyridin-5-yl)acetamide]	90%
O=C(Cc1cccc2nccn12)Nc1ccc(C(F)(F)F)nc1 [Example 44, 2-(imidazo[1,2-a]pyridin-5-yl)-N-(6-(trifluoromethyl)pyridin-3-yl)acetamide]	71%
O=C(Cc1cccc2nccn12)Nc1cnc(C(F)(F)F)nc1 [Example 47, 2-(imidazo[1,2-a]pyridin-5-yl)-N-(2-(trifluoromethyl)-pyrimidin-5-yl)acetamide]	52%
CN(C(=O)Cc1cccc2nccn12)c1ccc(C(F)(F)F)cc1 [Example 51, 2-(imidazo[1,2-a]pyridin-5-yl)-N-methyl-N-(4-(trifluoromethyl)phenyl)-acetamide]	56%
CCN(C(=O)Cc1cccc2nccn12)c1ccc(OC(F)(F)F)cc1 [Example 59, N-ethyl-2-(imidazo[1,2-a]pyridin-5-yl)-N-(4-(trifluoromethoxy)-phenyl)acetamide]	57%

Reference: patent US10202376B2, “Heterocyclic compound” (Takeda Pharmaceutical Company Limited, priority 2014, dated 2019)
